Tested on: Wistar-King male rats
Assay: Serum total cholesterol and triglycerides in cholesterol/cholic acid/corn oil-loaded rats after 7 days oral administration
Assay type: in vivo
Conditions: once a day for 7 days, 4 hours after last administration, mean of 6 rats; for Serum lipid level, total cholesterol: control 210.0; for Serum lipid level, triglyceride: control 621.7
Protocol: Wistar-King male rats weighing 170 g are orally administered with 5% acacia gum suspension of the compound obtained in Example 1 or 2. Thirty minutes thereafter, a mixture of 10% cholesterol, 1% cholic acid and corn oil is orally administered at a dose of 10 ml/kg.
The above-described administration is made once a day for consecutive 7 days, and 4 hours after the last administration blood is drawn from the abdominal large artery of the rats under ether anesthesia. The blood is centrifuged at 1630×g at 4° C. for 10 min. to isolate serum. Measurements were made on serum levels of total cholesterol and triglycerides by means of serum lipid reagents, V-cholestase (Nissui, trade name for the total cholesterol) and V-Triglase (Nissui, trade name for the triglycerides). Results are shown in Table 1, in which mean values for a group of 6 animals are shown.

SMILES | Serum lipid level, total cholesterol (dose 1.2 mM/kg) [mg/dL] | Serum lipid level, triglyceride (dose 1.2 mM/kg) [mg/dL] | Serum lipid level, total cholesterol (dose 2.4 mM/kg) [mg/dL] | Serum lipid level, triglyceride (dose 2.4 mM/kg) [mg/dL]
CC/C=C\C/C=C\C/C=C\C/C=C\C/C=C\CCCC(=O)NCCOC(=O)c1cccnc1 [Example 2, N-(5,8,11,14,17-eicosapentaenoyl)-2-aminoethyl nicotinate] | 194.8 | 296.4 | 130.4 | 202.8
CC/C=C\C/C=C\C/C=C\CCCCCCCC(=O)NCCOC(=O)c1cccnc1 [Example 1, N-(9,12,15-octadecatrienoyl)-2-aminoethyl nicotinate] | 198.9 | 350.1 | 146.6 | 258.4
O=C(O)c1cccnc1 [Nicotinic acid, reference compound] | – | – | 195.4 | 312.2
